Measured values taken from PubChem BioAssay (NCI).
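Exposure lasted 48 hours, with cells grown in 96-well plates and compounds tested at five concentrations. GI50 = concentration required for 50% inhibition of growth. TGI: concentration producing complete growth inhibition.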

Tests used:
Assay in all cases: NCI tumour cell line growth inhibition, 48 h
A498 renal = test system: A498 renal
COLO 205 colon = test system: COLO 205 colon
HOP-62 NSCLC = test system: HOP-62 NSCLC
IGROV1 ovarian = test system: IGROV1 ovarian
MALME-3M melanoma = test system: MALME-3M melanoma
SF-295 CNS = test system: SF-295 CNS
SK-OV-3 ovarian = test system: SK-OV-3 ovarian
SNB-75 CNS = test system: SNB-75 CNS
UO-31 renal = test system: UO-31 renal
BT-549 breast = test system: BT-549 breast

SMILES	TGI (A498 renal) [µM]	TGI (COLO 205 colon) [µM]	TGI (HOP-62 NSCLC) [µM]	TGI (IGROV1 ovarian) [µM]	TGI (MALME-3M melanoma) [µM]	TGI (SF-295 CNS) [µM]	TGI (SK-OV-3 ovarian) [µM]	TGI (SNB-75 CNS) [µM]	TGI (UO-31 renal) [µM]	TGI (BT-549 breast) [µM]	GI50 (A498 renal) [nM]	GI50 (COLO 205 colon) [nM]	GI50 (HOP-62 NSCLC) [nM]	GI50 (IGROV1 ovarian) [nM]	GI50 (MALME-3M melanoma) [nM]	GI50 (SK-OV-3 ovarian) [nM]	GI50 (SNB-75 CNS) [nM]	GI50 (UO-31 renal) [nM]
CN(C)CC(CC1=C(CC(CN(C)C)N(C)C)CCC1)N(C)C (configuration not stated)	> 100	> 100	> 100	> 100	> 100	> 100	> 100	> 100	> 100	–	–	–	–	–	–	–	–	–
CC1=NN(c2cccc(Cl)c2)C2(SCC(=O)N2c2nc3ccccc3s2)/C1=C\c1cccs1 (configuration not stated)	59	–	> 100	> 100	–	78.3	–	47.9	60.2	37.1	–	–	–	–	–	–	–	–
Fc1ccc(C(OCCN2CCC3CCC(C2)N3C/C=C/c2ccco2)c2ccc(F)cc2)cc1 (configuration not stated)	23.3	13.3	36.5	21	21.7	27.7	30.3	30	28.8	25.7	–	–	–	–	–	–	–	–
O=C(c1cccs1)N(C(=S)OC12CC3CC(CC(C3)C1)C2)c1ccccc1	> 100	33.8	> 100	–	> 100	> 100	> 100	> 100	70.3	> 100	–	–	–	–	–	–	–	–
O=C(/C=C/c1ccccc1)NNC(=O)c1c(Cl)c(Cl)c(Cl)c(Cl)c1-c1nc2ccccc2[nH]1	90.9	33.2	56.5	45.6	59.1	> 100	54.9	59.2	55.6	76.1	–	–	–	–	–	–	–	–
O=c1[nH]nc(NNc2ccccc2)c2nnn(C3CCCCC3)c12	–	> 100	> 100	–	> 100	> 100	–	–	> 100	> 100	–	–	–	–	–	–	–	–
COc1cc2c(cc1O)CC[C@@H]1[C@@H]2CC[C@]2(C)[C@@H](OCCN(C)C)CC[C@@H]12	1.37	1.17	1.66	5.94	0.753	–	2.11	0.449	1.48	–	569	521	389	818	155	356	78.7	624
Cc1c(N2C(=O)CS(=O)(=O)C2c2cccc(Oc3ccccc3)c2)c(=O)n(-c2ccccc2)n1C (configuration not stated)	55.9	95.8	> 100	> 100	60	> 100	> 100	–	> 100	> 100	–	–	–	–	–	–	–	–
Cc1ccccc1C(=O)N/N=C/c1ccc(Sc2nccn2C)c([N+](=O)[O-])c1	> 100	> 100	> 100	> 100	> 100	> 100	> 100	> 100	> 100	> 100	–	–	–	–	–	–	–	–
COc1nc(C#CC2(O)CCCCC2)nc(OC)n1	31.2	45.5	91	23.1	15.3	60.4	> 100	40.3	15.1	28	–	–	–	–	–	–	–	–
Nc1ccccc1S(=O)(=O)c1ccccc1	> 100	> 100	> 100	> 100	> 100	> 100	> 100	> 100	> 100	–	–	–	–	–	–	–	–	–
CC(=O)C1=C(C)N(c2ccc(C)cc2)C2(O)C=CC(=O)C3C(=O)N(c4ccccc4)C(=O)C132 (configuration not stated)	39.6	> 100	> 100	22.3	46.6	43.7	–	50.5	24.6	39.8	–	–	–	–	–	–	–	–
CCCNC(=O)CCC(C)C1CCC2C3C(C[C@H](OC(C)=O)[C@]12C)[C@@]1(C)CCC2(C[C@H]1C[C@H]3OC(C)=O)OOC1(CC[C@]3(C)C4C[C@H](OC(C)=O)[C@]5(C)C(C(C)CCC(=O)NCCC)CCC5C4[C@H](OC(C)=O)C[C@@H]3C1)OO2 (some centres not stated)	> 100	> 100	> 100	> 100	> 100	> 100	> 100	> 69.5	3.31	> 100	–	–	–	–	–	–	–	–
CC12CC3OC(=O)C1COC14OC5(C2C1=O)C(O)(CCC1C4CC(O)C2(O)CC=CC(=O)C12C)C(=O)OC35C (configuration not stated)	–	> 100	–	> 100	> 100	> 100	> 100	> 100	> 100	> 100	–	–	–	–	–	–	–	–
O=C(OCN1C(=O)C2C3C=CC(C2C1=O)C1C2C(=O)N(COC(=O)C4CCCN4)C(=O)C2C31)C1CCCN1 (configuration not stated)	> 100	> 100	> 100	> 100	> 100	> 100	> 100	> 100	> 100	–	–	–	–	–	–	–	–	–
CC1CC[C@@]2(OC1)OC1C[C@H]3[C@@H]4CC=C5CC(OC6OC(CO)C(OC7OC(CO)C(O)C(OC8OCC(O)C(O)C8O)C7OC7OC(CO)C(O)C(O)C7O)C(O)C6O)CCC5(C)[C@H]4CCC3(C)C1[C@@H]2C (some centres not stated)	9.19	8.16	9.32	8.06	> 25	21.2	20.7	13.7	–	9.24	–	–	–	–	–	–	–	–
COc1cccc2c1Cc1cc(-c3ccccc3)[n+](C)n1-2	> 100	7.46	> 100	> 100	25.6	> 100	> 100	58.6	90.8	99.5	–	–	–	–	–	–	–	–
CNC(=O)OCc1c(CO)nc(SC)n1C	> 100	> 100	> 100	> 100	> 100	> 100	> 100	> 100	> 100	–	–	–	–	–	–	–	–	–
O=C(/C=C/c1ccc(O)c(-c2cc(C(=O)/C=C/c3ccc(O)cc3)c(O)cc2O)c1)c1ccc(O)cc1O	> 50	24	> 50	> 50	> 50	> 50	48.3	36	> 50	> 50	–	–	–	–	–	–	–	–
CNc1ccc2c(c1)[C@@]1(C)c3ccccc3[C@@H](C2)N1C	74	–	> 100	> 100	82.1	> 100	> 100	–	> 100	35.9	–	–	–	–	–	–	–	–
